EP0197829A1, “5H-pyrido[3',4':4,5]pyrrolo[3,2-c]pyridine derivatives, process for their preparation and their antitunour activity” (SANOFI, priority 1985, dated 1986)

Legend:
in vivo = assay: in vivo; set-up: species or system souris; conditions: mouse, ip, 100 mg/kg
Procedure: Ainsi, l'administration à des souris hybrides CDF1 saines, en une injection unique par la voie intrapéritonéale, de doses croissantes des composés à tester (5 mg, 10 mg, 20 mg, 40 mg/kg) a permis de constater que, à ces doses, les produits étaient parfaitement tolérés puisque le taux de survivants était de 100 p. 100.
Dans les mêmes conditions, administrés à des souris BDF1 saines, les taux de survivants étaient de 100 p. 100 jusqu'à 100 mg/kg pour les dérivés 1, 3 et 9 et jusqu'à 200 mg/kg pour les dérivés 2 et 8.

mélanome B 16 = assay: B 16 melanoma test in vivo; set-up: species or system souris hybrides BDF1; Jour médian de survie: unit not given here; conditions: for Survivants: at day J 60
Source text: L'activité antitumorale a été testée in vivo sur différentes tumeurs selon le protocole général suivant : Toutes les souris mâles ou femelles sont inoculées par voie intrapéritonéale au jour Jo avec une quantité déterminée de cellules tumorales viables, variable selon la tumeur.
Elles sont ensuite réparties en différents lots. Chaque lot correspondant aux animaux traités par le produit à tester à une dose déterminée est composé de lO souris. Dans ce cas, le produit à tester est dissous dans l'eau distillée et il est administré, pendant n jours (J1-Jn) variables selon le protocole choisi, par voie intrapéritonéale à raison de 0,1 ml par lO g de poids des souris traitées, les doses du produit administré étant précisées dans les tableaux ci-dessous.
Le lot "Contrôle négatif", correspondant aux animaux qui ne sont pas traités par un produit, comprend 2 √N animaux, N étant égal au nombre total de souris traitées par un produit.
Enfin, tous lés essais sont conduits parallèlement à l'étude d'un lot appelé "Contrôle positif" de 10 animaux qui est traité par une molécule active, variable selon le protocole choisi, dans les mêmes conditions que les lots traités par le produit à tester, afin de valider l'essai.
L'activité antitumorale est évaluée en considérant l'augmentation du temps de survie des animaux traités par rapport à celui des animaux du lot "Contrôle négatif" selon la formule : • Jour médian de survie des animaux traités à une T/C = dose donnée de produit x 100 • Jour médian de survie des animaux "Contrôle négatif"
Un composé est considéré comme étant actif lorsque la valeur du rapport T/C est égale ou supérieure à 125 % selon le protocole retenu. Il est toxique lorsque cette valeur est égale ou inférieure à 85 %. Le produit est également considéré comme toxique lorsque la variation pondérale, exprimée en grammes et calculée par la formule : Poids moyen du lot mesuré au jour 5 - poids moyen du même lot au jour 1, est égale ou inférieure à -4g . a) Test de la leucémie P 388 (GERAN et al., Cancer Chemother, 1972, 2, 07-57).
c) Test du mélanome B 16 (GERAN et al., Cancer Chemother, 1972, 2, 07-57).
Les essais sont effectués avec des souris hybrides BDF1 inoculées avec O,5 ml d'un homogénat de mélanome B 16 réalisé à partir de 1 g de tumeur dans 10 ml de sérum physiologique. Le composé à tester est administré pendant 9 jours (J1-J9). Le contrôle positif du test est le Cis- platine administré dans les mêmes conditions. Le nombre d'animaux survivants est évalué au jour J 60. Un composé est considéré comme étant actif lorsque le rapport T/C est supérieur ou égal à 125 %.

[1] = tested on: lignée tumorale leucémie L 1210; assay: In vitro cytotoxicity on L 1210 leukemia cell culture; assay type: cell-based; conditions: Mus musculus, L1210; concentration inhibiting cell proliferation by 50 p. 100, after 48 h contact; read-out: ID 50 (the source's name)
Procedure: 1) In vitro : (PAOLETTI et al., Chem. Biol. Interaction, 1979, 25, 45-58).
L'activité cytotoxique des composés de l'invention a été évaluée par des essais in vitro. Ces essais consistent à ajouter des concentrations croissantes du composé à tester à une culture cellulaire de la lignée tumorale leucémie L 1210 en phase exponentielle de croissance. Les cellules sont incubées à 37°C dans une étuve à C02 et comptées toutes les 24 heures. Le calcul de l'ID 50 (concentration du produit exprimée en micromole 1^-1 qui inhibe la prolifération cellulaire à 50 p. 100) est effectué après 48 heures de contact. Ainsi déterminées, les ID 50 des composés de l'invention sont rassemblées dans le tableau I ci-après : […]

| SMILES | survival (in vivo) [%] | Jour médian de survie (mélanome B 16; 5 mg/kg i.p. J1-J9) | T/C % (mélanome B 16; 5 mg/kg i.p. J1-J9) [%] | Survivants (mélanome B 16; 5 mg/kg i.p. J1-J9) | Jour médian de survie (mélanome B 16; 20 mg/kg i.p. J1-J9) | T/C % (mélanome B 16; 20 mg/kg i.p. J1-J9) [%] | Survivants (mélanome B 16; 20 mg/kg i.p. J1-J9) | Jour médian de survie (mélanome B 16; 40 mg/kg i.p. J1-J9) | T/C % (mélanome B 16; 40 mg/kg i.p. J1-J9) [%] | Survivants (mélanome B 16; 40 mg/kg i.p. J1-J9) | Jour médian de survie (mélanome B 16; 30 mg/kg i.p. J1-J9) | T/C % (mélanome B 16; 30 mg/kg i.p. J1-J9) [%] | Survivants (mélanome B 16; 30 mg/kg i.p. J1-J9) | Jour médian de survie (mélanome B 16; 50 mg/kg i.p. J1-J9) | T/C % (mélanome B 16; 50 mg/kg i.p. J1-J9) [%] | Survivants (mélanome B 16; 50 mg/kg i.p. J1-J9) | Jour médian de survie (mélanome B 16; 60 mg/kg i.p. J1-J9) | T/C % (mélanome B 16; 60 mg/kg i.p. J1-J9) [%] | Survivants (mélanome B 16; 60 mg/kg i.p. J1-J9) | IC50 [1] [nM] |
| --- | --- | --- | --- | --- | --- | --- | --- | --- | --- | --- | --- | --- | --- | --- | --- | --- | --- | --- | --- | --- |
| Cc1cnc(NCCCN(C)C)c2c1[nH]c1ccncc12 [Dérivé N° 3, [(diméthylamino-3 propyl-1)amino]-1 méthyl-4 5-H pyrido[3',4':4,5]pyrrolo[3,2-c]pyridine] | 100 | 29 | 125 | 0 | 29,3 | 126 | 0 | 9,8 | 42 | 0 |  |  |  |  |  |  |  |  |  |  |
| CCN(CC)CCCNc1ncc(C)c2c1c1cnccc1n2C [Dérivé N° 4, [(diéthylamino-3 propyl-1)amino]-1 diméthyl-4,5 5-H pyrido[3',4':4,5]pyrrolo[3,2-c]pyridine] |  |  |  |  | 28 | 99 | 0 | 53,0 | 188 | 5 | 43,0 | 152 | 4 | 39,0 | 138 | 0 | 24,0 | 85 | 0 | 130 |
